{"source": "patent US8658619B2", "about": "“Methods of treating subclinical sun damage” (priority 2010, dated 2014)", "tested_on": "subclinical sun damage", "experiment": "Follow-up treatments of one patient on a substantially annual basis", "format": "in vivo, human", "details": "each time after the first treatment", "from_the_text": "In order to assess the scope of original treatment, one patient received further treatments over a substantially annual basis. In Table 4, treatment #, days since last treatment, and observations are provided. […] From this, it was concluded that all of the subclinical sun damage treated most likely resolved during each cycle of therapy. Subsequent milder reactions appear to have treated new subclinical sun damage or possible recurrent sun damage. […] The freckle also resolved itself after follow-up treatment #1. During follow-up treatment #2, FIG. 4C, there was no sign of the freckle. That is, where there may not have been a response during an earlier treatment, a subsequent treatment invoked a response. Moreover, responses to successive treatments, if any, were not as severe as the initial response. […] It is also concluded that annual treatment aids in preventing actinic keratoses from forming as well as eliminates any new sun damage."}
{"smiles": "O=c1[nH]cc(F)c(=O)[nH]1", "note": "[5-FU, 5-fluorouracil]", "values": [{"measurement": "response in follow-up treatments", "value": "mild erythema"}]}
